The values below come from BindingDB's records for doi:10.1021/jm970140s (Merck Research Laboratories, 1997).

Molecules are shown by their SMILES.

In this test the target is Vitamin K-dependent protein C (Homo sapiens) (UniProt P04070). Kind of test: Inhibitory activity against human serine protease (act protein C )(7.5*10e6*).

A word on the Ki: it is a dissociation constant, usually derived from enzyme kinetics or from competition with a known ligand. A higher Ki goes with lower affinity.

Chain of Vitamin K-dependent protein C (Homo sapiens) (P04070 whole entry, looked up): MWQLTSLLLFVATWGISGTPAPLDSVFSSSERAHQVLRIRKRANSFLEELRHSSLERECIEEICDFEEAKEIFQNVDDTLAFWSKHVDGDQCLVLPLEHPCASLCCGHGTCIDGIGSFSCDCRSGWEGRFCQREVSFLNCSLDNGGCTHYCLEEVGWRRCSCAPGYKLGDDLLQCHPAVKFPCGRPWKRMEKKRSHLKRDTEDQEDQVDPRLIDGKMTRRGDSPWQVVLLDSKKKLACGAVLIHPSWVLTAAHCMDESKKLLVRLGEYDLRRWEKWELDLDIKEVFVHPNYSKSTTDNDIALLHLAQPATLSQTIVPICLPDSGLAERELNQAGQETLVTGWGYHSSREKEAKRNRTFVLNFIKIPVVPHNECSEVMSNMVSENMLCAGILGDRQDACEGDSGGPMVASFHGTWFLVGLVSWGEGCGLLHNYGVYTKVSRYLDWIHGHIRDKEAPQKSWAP

Turning to `NC1CCC(CNC(=O)[C@@H]2CCCN2C(=O)[C@H](N)C(C2CCCCC2)C2CCCCC2)CC1` (stereo partly specified) [1-(2-Amino-3,3-dicyclohexyl-propionyl)-pyrrolidine-2-carboxylic acid (4-amino-cyclohexylmethyl)-amide], the Ki came to 417 µM.
